Test results published in the CheMixHub viscosity set.

Assay: xn = mol fraction of the nth substance listed

CCCCCCCCO + CC1COC(=O)O1
298.15 K, 101 kPa
Conditions | viscosity [mPa·s]
x2 = 0.0305 | 5.992
x2 = 0.0991 | 5.607
x2 = 0.1708 | 5.253
x2 = 0.2441 | 4.915
x2 = 0.3107 | 4.627
x2 = 0.4055 | 4.245
x2 = 0.4882 | 3.938
x2 = 0.5632 | 3.679
x2 = 0.6277 | 3.469
x2 = 0.7091 | 3.222
x2 = 0.7824 | 3.015
x2 = 0.8415 | 2.857
x2 = 0.9046 | 2.698
x2 = 0.971 | 2.54

CC(=O)c1ccc(Cl)cc1 + CC#N
308.15 K, 101 kPa
Conditions | viscosity [mPa·s]
x1 = 0.0513 | 0.3576
x1 = 0.092 | 0.4065
x1 = 0.1488 | 0.479
x1 = 0.2128 | 0.5704
x1 = 0.2863 | 0.6742
x1 = 0.3792 | 0.8301
x1 = 0.4876 | 1.039
x1 = 0.6196 | 1.31
x1 = 0.7847 | 1.716
x1 = 0.865 | 1.96
x1 = 0.9536 | 2.224

CCCCCCCCO + CC#N
viscosity [mPa·s], 101 kPa
Conditions | 298.15 K | 303.15 K | 308.15 K
x2 = 0.1277 | 5.028 | 4.029 | 3.493
x2 = 0.2608 | 3.533 | 3.09 | 2.688
x2 = 0.3381 | 2.848 | 2.53 | 2.203
x2 = 0.4447 | 2.086 | 1.862 | 1.638
x2 = 0.5793 | 1.427 | 1.282 | 1.151
x2 = 0.68 | 1.028 | 0.927 | 0.84
x2 = 0.7638 | 0.77 | 0.701 | 0.647
x2 = 0.8283 | 0.695 | 0.562 | 0.523
x2 = 0.8825 | 0.502 | 0.472 | 0.446
x2 = 0.9273 | 0.435 | 0.414 | 0.391
x2 = 0.967 | 0.39 | 0.364 | 0.346

C=Cc1ccccc1 + CC(=O)N(C)C
viscosity [mPa·s], 101.33 kPa
Conditions | x1 = 0.109 | x1 = 0.1994 | x1 = 0.2958 | x1 = 0.4002 | x1 = 0.5004 | x1 = 0.6012 | x1 = 0.7027 | x1 = 0.8005 | x1 = 0.9015
298.15 K | 0.938 | 0.936 | 0.937 | 0.929 | 0.921 | 0.903 | 0.881 | 0.851 | 0.808
303.15 K | 0.874 | 0.873 | 0.872 | 0.863 | 0.857 | 0.841 | 0.821 | 0.795 | 0.753
308.15 K | 0.817 | 0.818 | 0.815 | 0.807 | 0.8 | 0.785 | 0.766 | 0.742 | 0.7

CC(C)(C)N + CC(=O)OCCC(C)C
303.15 K, 101 kPa
Conditions | viscosity [mPa·s]
x1 = 0.1524 | 0.6892
x1 = 0.239 | 0.6687
x1 = 0.3353 | 0.6526
x1 = 0.4584 | 0.6341
x1 = 0.5807 | 0.5993
x1 = 0.6423 | 0.5804
x1 = 0.7298 | 0.5464
x1 = 0.8649 | 0.4955

BrC(Br)Br + CC(C)=O
298.15 K, 101 kPa
Conditions | viscosity [mPa·s]
x1 = 0.0969 | 0.407
x1 = 0.2014 | 0.529
x1 = 0.332 | 0.696
x1 = 0.428 | 0.847
x1 = 0.4952 | 0.954
x1 = 0.5974 | 1.131
x1 = 0.6766 | 1.268
x1 = 0.7997 | 1.503
x1 = 0.9166 | 1.73

BrC(Br)Br + CC(C)CCO
viscosity [mPa·s], 101.33 kPa
Conditions | x1 = 0.099 | x1 = 0.203 | x1 = 0.299 | x1 = 0.422 | x1 = 0.498 | x1 = 0.599 | x1 = 0.702 | x1 = 0.803 | x1 = 0.9
298.15 K | 3.419 | 3.063 | 2.77 | 2.415 | 2.265 | 2.111 | 1.957 | 1.888 | 1.873
303.15 K | 2.937 | 2.643 | 2.384 | 2.145 | 2.025 | 1.909 | 1.795 | 1.739 | 1.737
308.15 K | 2.527 | 2.306 | 2.111 | 1.905 | 1.815 | 1.729 | 1.647 | 1.61 | 1.605

BrC(Br)Br + CC(C)CO
viscosity [mPa·s], 101.3 kPa
Conditions | x1 = 0.099 | x1 = 0.197 | x1 = 0.3 | x1 = 0.395 | x1 = 0.498 | x1 = 0.597 | x1 = 0.701 | x1 = 0.798 | x1 = 0.901
298.15 K | 2.98 | 2.604 | 2.336 | 2.134 | 2.017 | 1.905 | 1.849 | 1.815 | 1.823
303.15 K | 2.544 | 2.272 | 2.045 | 1.901 | 1.808 | 1.732 | 1.693 | 1.679 | 1.699
308.15 K | 2.193 | 2.011 | 1.803 | 1.687 | 1.633 | 1.579 | 1.559 | 1.558 | 1.591

BrC(Br)Br + CCC(C)=O
viscosity [mPa·s]
Conditions | x1 = 0.1474 | x1 = 0.1586 | x1 = 0.3005 | x1 = 0.3052 | x1 = 0.5009 | x1 = 0.5019 | x1 = 0.6499 | x1 = 0.6501 | x1 = 0.8432 | x1 = 0.8502
298 K, 101.3 kPa | – | 0.583 | – | 0.768 | 1.072 | – | – | 1.318 | 1.626 | –
318 K, 101.33 kPa | 0.4678 | – | 0.6228 | – | – | 0.8523 | 1.038 | – | – | 1.298

CCCCCCCCO + CCC(C)=O
viscosity [mPa·s], 100 kPa
Conditions | x2 = 0.0822 | x2 = 0.1611 | x2 = 0.2403 | x2 = 0.3498 | x2 = 0.4409 | x2 = 0.5588 | x2 = 0.6462 | x2 = 0.7398 | x2 = 0.8503 | x2 = 0.9398
293.15 K | 7.1 | 5.43 | 4.3 | 3.18 | 2.46 | 1.7 | 1.26 | 0.96 | 0.68 | 0.49
303.15 K | 4.93 | 3.97 | 3.09 | 2.32 | 1.7 | 1.03 | 0.75 | 0.62 | 0.49 | 0.42
313.15 K | 3.59 | 2.87 | 2.28 | 1.69 | 1.32 | 0.98 | 0.78 | 0.62 | 0.49 | 0.39
323.15 K | 2.74 | 2.22 | 1.82 | 1.38 | 1.1 | 0.83 | 0.67 | 0.54 | 0.43 | 0.35

BrC(Br)Br + CCCC#N
298.15 K, 101 kPa
Conditions | viscosity [mPa·s]
x1 = 0.09373 | 0.6216
x1 = 0.2439 | 0.8407
x1 = 0.3911 | 1.021
x1 = 0.4986 | 1.169
x1 = 0.7 | 1.46
x1 = 0.9 | 1.724

CC12CC3CC(C1)CC(C)(C3)C2 + CCCCC1CCCCC1
viscosity [mPa·s], 100 kPa
Conditions | x1 = 0.083 | x1 = 0.1716 | x1 = 0.2652 | x1 = 0.3625 | x1 = 0.4617 | x1 = 0.5636 | x1 = 0.662 | x1 = 0.7728 | x1 = 0.8838
293.15 K | 1.407 | 1.518 | 1.654 | 1.802 | 1.989 | 2.215 | 2.472 | 2.797 | 3.222
298.15 K | 1.293 | 1.391 | 1.512 | 1.643 | 1.805 | 2.007 | 2.229 | 2.518 | 2.885
303.15 K | 1.194 | 1.281 | 1.389 | 1.506 | 1.647 | 1.828 | 2.024 | 2.272 | 2.601
313.15 K | 1.03 | 1.099 | 1.187 | 1.28 | 1.393 | 1.537 | 1.692 | 1.883 | 2.145
323.15 K | 0.893 | 0.951 | 1.008 | 1.088 | 1.182 | 1.289 | 1.414 | 1.583 | 1.774

BrC(Br)Br + CCCCCC
298.15 K, 101 kPa
Conditions | viscosity [mPa·s]
x1 = 0.1058 | 0.3543
x1 = 0.2044 | 0.402
x1 = 0.2976 | 0.4904
x1 = 0.3989 | 0.5721
x1 = 0.5 | 0.6698
x1 = 0.6001 | 0.8212
x1 = 0.6743 | 0.9353
x1 = 0.8 | 1.217
x1 = 0.8948 | 1.475

C=Cc1ccccc1 + CCCCCC
viscosity [mPa·s], 101.33 kPa
Conditions | x1 = 0.1019 | x1 = 0.1987 | x1 = 0.3024 | x1 = 0.4003 | x1 = 0.4992 | x1 = 0.6023 | x1 = 0.7055 | x1 = 0.8021 | x1 = 0.8935
298.15 K | 0.314 | 0.334 | 0.362 | 0.385 | 0.417 | 0.457 | 0.507 | 0.566 | 0.632
303.15 K | 0.302 | 0.319 | 0.346 | 0.367 | 0.397 | 0.436 | 0.482 | 0.534 | 0.597
308.15 K | 0.29 | 0.305 | 0.328 | 0.351 | 0.379 | 0.412 | 0.455 | 0.505 | 0.56

CCC(C)(C)OC + CCCCCC
viscosity [mPa·s], 100 kPa
Conditions | x1 = 0.0498 | x1 = 0.1632 | x1 = 0.2584 | x1 = 0.3742 | x1 = 0.4276 | x1 = 0.5464 | x1 = 0.6121 | x1 = 0.7457 | x1 = 0.8625 | x1 = 0.9488
293.15 K | 0.317 | 0.325 | 0.332 | 0.343 | 0.349 | 0.363 | 0.372 | 0.391 | 0.412 | 0.429
303.15 K | 0.287 | 0.293 | 0.3 | 0.31 | 0.315 | 0.33 | 0.339 | 0.362 | 0.384 | 0.407
313.15 K | 0.254 | 0.259 | 0.266 | 0.277 | 0.282 | 0.296 | 0.304 | 0.323 | 0.343 | 0.358

CCCCCCCCO + CCCCCC
298.15 K, 101.33 kPa
Conditions | viscosity [mPa·s]
x2 = 0.1657 | 4.313
x2 = 0.2119 | 3.677
x2 = 0.274 | 2.968
x2 = 0.3717 | 2.093
x2 = 0.4775 | 1.432
x2 = 0.5556 | 1.096
x2 = 0.6659 | 0.759
x2 = 0.7638 | 0.559
x2 = 0.8406 | 0.443
x2 = 0.9211 | 0.35
x2 = 0.9597 | 0.319
